Results from patent publication US10752588B2 (The Broad Institute, Inc., priority 2014, dated 2020).
Like-named read-outs stand apart in the source and are kept apart here.

What was measured:
[1] = target: T1, human D2R/β-arrestin (Homo sapiens (Human), UniProt P14416); test: β-Arrestin agonist assay (PathHunter); format: cell-based; details: CHO-K1 cell line expressing human D2R/β-arrestin
How it was run: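 Readout follows addition of Buffer:Emerald II:Galactor-Star reagent (19:5:1) to agonist-treated plates, measured as luminescence or fluorescence.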

[2] = target: T1, human D2R/β-arrestin; test: Gi/cAMP agonist assay (Lance Ultra cAMP, Forskolin); format: cell-based; details: CHO-K1 cell line expressing human D2R/β-arrestin
How it was run: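 Read-out was Lance Ultra competitive TR-FRET (Eu-cAMP tracer plus ULight-anti-cAMP) following forskolin-induced cAMP production. Before forskolin stimulation, compounds were pin-transferred onto the seeded cells for 10 min at 37 °C.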

[3] = target: T1, human D2R/β-arrestin; details: read-out: β-arrestin Antagonist
[4] = target: T1, human D2R/β-arrestin; details: read-out: cAMP Antagonist
[5] = target: T1, human D2R/β-arrestin; test: cell-based; details: cAMP Antagonist
[6] = target: T1, human D2R/β-arrestin; test: cell-based; details: β-arrestin Antagonist, CHO-K1 cell line expressing human D2R/β-arrestin; quinpirole used as agonist
[7] = Microsomal stability, mouse
[8] = CHO-K1 cell line expressing human D2R/β-arrestin, quinpirole used as agonist

T1 sequence (P14416 whole entry): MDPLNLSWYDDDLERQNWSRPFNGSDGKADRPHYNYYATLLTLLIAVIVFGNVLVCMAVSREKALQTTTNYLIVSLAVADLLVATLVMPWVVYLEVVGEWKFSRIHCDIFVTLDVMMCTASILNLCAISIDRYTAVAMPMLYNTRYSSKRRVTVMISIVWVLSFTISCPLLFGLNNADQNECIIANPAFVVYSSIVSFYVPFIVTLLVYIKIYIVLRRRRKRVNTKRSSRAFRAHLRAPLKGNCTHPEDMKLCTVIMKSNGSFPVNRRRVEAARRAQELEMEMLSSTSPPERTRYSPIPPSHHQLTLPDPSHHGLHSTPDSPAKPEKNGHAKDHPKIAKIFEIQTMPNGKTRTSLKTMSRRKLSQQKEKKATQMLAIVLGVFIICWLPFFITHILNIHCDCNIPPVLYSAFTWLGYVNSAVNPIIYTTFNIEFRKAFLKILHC

| SMILES | EC50 [1] | EC50 [2] | IC50 [3] | IC50 [4] | IC50 [5] | IC50 [4, 8] | IC50 [6] | IC50 [3, 8] | IC50 [5, 8] | Microsomal Stability: % remaining after 60 minutes [7] |
| --- | --- | --- | --- | --- | --- | --- | --- | --- | --- | --- |
| O=C(NC(c1ccc(F)cc1)c1ccccn1)C1CCN(CCOc2ccccc2C(F)(F)F)CC1 (single isomer, unassigned) [Compound 52a] | > 30000 nM | > 30000 nM | 100 to 1000 nM | < 100 nM |  |  |  |  |  |  |
| O=C(NC(c1ccc(F)cc1)c1ccc(Cl)cc1)C1CCN(CCOc2ccccc2)CC1 (single isomer, unassigned) [Compound 42b] | > 30000 nM | 10000 to 30000 nM | 1000 to 10000 nM | 1000 to 10000 nM |  |  |  |  |  |  |
| O=C(NC(c1ccc(Cl)cc1)c1ccccc1F)C1CCN(CCOc2ccccc2F)CC1 (single isomer, unassigned) [Compound 96a, N-((4-chlorophenyl)(2-fluorophenyl)methyl)-1-(2-(2-fluorophenoxy)ethyl) piperidine-4-carboxamide] | > 30000 nM | 1000 to 10000 nM | 1000 to 10000 nM | > 30000 nM |  |  |  |  |  |  |
| CC(C)N(CC1CCN(CCOc2ccccc2)CC1)C(c1ccc(Cl)cc1)c1ccccn1 (single isomer, unassigned) [Compound 103b, N-((4-chlorophenyl)(pyridin-2-yl)methyl)-N-((1-(2-phenoxyethyl)piperidin-4-yl)methyl)propan-2-amine] | 100 to 1000 nM | < 100 nM | 100 to 1000 nM |  | > 30000 nM |  |  |  |  |  |
| O=C(NC(c1ccc(Cl)cc1)c1ccccc1F)C1CCN(CCOc2ccccc2)CC1 (single isomer, unassigned) [Compound 40b, N((4-chlorophenyl)(2-fluorophenyl)methyl)-1-(2-phenoxyethyl) piperidine-4-carboxamide] | > 30000 nM | 1000 to 10000 nM | 1000 to 10000 nM | > 30000 nM |  |  |  |  |  |  |
| Clc1ccc(C(c2ccccn2)N2CCC3(CCN(CCOc4ccccc4)CC3)C2)cc1 (single isomer, unassigned) [Compound 105b, 2-((4-chlorophenyl)(pyridin-2-yl)methyl)-8-(2-phenoxyethyl)-2,8-diazaspiro[4.5]decane] | 1000 to 10000 nM | 100 to 1000 nM |  |  |  | > 30000 nM | 1000 to 10000 nM |  |  |  |
| Fc1ccc(C(NCC2CCN(CCOc3ccccc3)CC2)c2ccccn2)cc1 (single isomer, unassigned) [Compound 78b, 1-(4-fluorophenyl)-N-((1-(2-phenoxyethyl)piperidin-4-yl)methyl)-1-(pyridin-2-yl)methanamine] | > 30000 nM | > 30000 nM |  |  |  | 1000 to 10000 nM |  | 1000 to 10000 nM |  |  |
| O=C(NC(c1ccc(Cl)cc1)c1ccccn1)C1CCN(CCOc2ccc3cccnc3c2)CC1 (single isomer, unassigned) [Compound 16a] | 1000 to 10000 nM | < 100 nM | > 30000 nM | > 30000 nM |  |  |  |  |  |  |
| O=C(NC(c1ccccc1)c1ccc(F)cc1)C1CCN(CCOc2ccccc2)CC1 (single isomer, unassigned) [Compound 45b] | > 30000 nM | 100 to 1000 nM | 100 to 1000 nM | 100 to 1000 nM |  |  |  |  |  |  |
| COc1cccc(C(NC(=O)C2CCN(CCOc3ccccc3F)CC2)c2ccccn2)c1 (single isomer, unassigned) [Compound 22a, 1-(2-(2-fluorophenoxy)ethyl)-N-((3-methoxyphenyl)(pyridin-2-yl)methyl) piperidine-4-carboxamide] | > 30000 nM | 10000 to 30000 nM | 100 to 1000 nM | 100 to 1000 nM |  |  |  |  |  |  |
| O=C(NC(c1ccc(F)cc1)c1ccccn1)C1CCN(CCOc2ccccc2F)CC1 (single isomer, unassigned) [Compound 54a, 1-(2-(2-fluorophenoxy)ethyl)-N-((4-fluorophenyl)(pyridin-2-yl)methyl) piperidine-4-carboxamide] | > 30000 nM | > 30000 nM | < 100 nM | < 100 nM |  |  |  |  |  |  |
| O=C(NC(c1ccc(Cl)cc1)c1ccccn1)C1CCN(CCOc2cccc(Cl)c2)CC1 (single isomer, unassigned) [Compound 1b, 1-(2-(3-chlorophenoxy)ethyl)-N-((4-chlorophenyl)(pyridin-2-yl)methyl)piperidine-4-carboxamide] | 1000 to 10000 nM | < 100 nM |  |  |  |  |  | 1000 to 10000 nM | > 30000 nM |  |
| CN(CC1CCN(CCOc2ccccc2F)CC1)C(c1ccc2c(c1)OCO2)c1ccccn1 (single isomer, unassigned) [Compound 138b, 1-(benzo[d][1,3]dioxol-5-yl)-N-((1-(2-(2-fluorophenoxy)ethyl)piperidin-4-yl)methyl)-N-methyl-1-(pyridin-2-yl)methanamine] | > 30000 nM | < 100 nM |  |  |  |  |  | 100 to 1000 nM | < 100 nM |  |
| O=C(NC(c1cccc(OC(F)(F)F)c1)c1ccccn1)C1CCN(CCOc2ccccc2F)CC1 (single isomer, unassigned) [Compound 93b, 1-(2-(2-fluorophenoxy)ethyl)-N-(pyridin-2-yl(3-(trifluoromethoxy)phenyl)methyl)piperidine-4-carboxamide] | > 30000 nM | 100 to 1000 nM |  |  |  |  |  | 1000 to 10000 nM | > 30000 nM | m19% |
| CC1(C(=O)NC(c2ccc(Cl)cc2)c2ccccn2)CCN(CCOc2ccccc2)CC1 (single isomer, unassigned) [Compound 144b, N-((4-chlorophenyl)(pyridin-2-yl)methyl)-4-methyl-1-(2-phenoxyethyl)piperidine-4-carboxamide] | 100 to 1000 nM | < 100 nM |  |  |  | > 30000 nM | 100 to 1000 nM |  |  |  |
| Fc1ccccc1C(NCC1CCN(CCOc2ccccc2)CC1)c1ccc(Cl)cc1 (single isomer, unassigned) [Compound 81b, 1-(4-chlorophenyl)-1-(2-fluorophenyl)-N-((1-(2-phenoxyethyl)piperidin-4-yl)methyl)methanamine] | > 30000 nM | > 30000 nM |  |  |  | 100 to 1000 nM | 1000 to 10000 nM |  |  |  |
| COc1cccc(C(c2ccccn2)N(C)CC2CCN(CCOc3ccccc3F)CC2)c1 (single isomer, unassigned) [Compound 77b, N-((1-(2-(2-fluorophenoxy)ethyl)piperidin-4-yl)methyl)-1-(3-methoxyphenyl)-N-methyl-1-(pyridin-2-yl)methanamine] | > 30000 nM | > 30000 nM |  |  |  | 100 to 1000 nM | 1000 to 10000 nM |  |  |  |
| O=C(NC(c1ccc2c(c1)OC(F)(F)O2)c1ccccn1)C1CCN(CCOc2ccc(F)cc2F)CC1 (single isomer, unassigned) [Compound 130b, N-((2,2-difluorobenzo[d][1,3]dioxol-5-yl)(pyridin-2-yl)methyl)-1-(2-(2,4-difluorophenoxy)ethyl)piperidine-4-carboxamide] | 100 to 1000 nM | < 100 nM |  |  |  |  |  | 1000 to 10000 nM | > 30000 nM |  |
| Fc1ccccc1OCCN1CCC(CNC(c2ccc3c(c2)OCO3)c2ccccn2)CC1 (single isomer, unassigned) [Compound 139b, 1-(benzo[d][1,3]dioxol-5-yl)-N-((1-(2-(2-fluorophenoxy)ethyl)piperidin-4-yl)methyl)-1-(pyridin-2-yl)methanamine] | > 30000 nM | 100 to 1000 nM |  |  |  | 100 to 1000 nM | 1000 to 10000 nM |  |  |  |
| COc1cccc(C(c2ccccn2)N(C)CC2CCN(CCOc3ccccc3)CC2)c1 (single isomer, unassigned) [Compound 76b, 1-(3-methoxyphenyl)-N-methyl-N-((1-(2-phenoxyethyl)piperidin-4-yl)methyl)-1-(pyridin-2-yl)methanamine] | > 30000 nM | 1000 to 10000 nM |  |  |  |  |  | 1000 to 10000 nM | 1000 to 10000 nM |  |
